This passage reports IC50 results from patent US6462063B1, “C-proteinase inhibitors” (Fibrogen, Inc., priority 2000, dated 2002).

For this experiment, the target named is T1, recombinant human C-proteinase (Homo sapiens, UniProt P13497).
T1 sequence (P13497 121-986): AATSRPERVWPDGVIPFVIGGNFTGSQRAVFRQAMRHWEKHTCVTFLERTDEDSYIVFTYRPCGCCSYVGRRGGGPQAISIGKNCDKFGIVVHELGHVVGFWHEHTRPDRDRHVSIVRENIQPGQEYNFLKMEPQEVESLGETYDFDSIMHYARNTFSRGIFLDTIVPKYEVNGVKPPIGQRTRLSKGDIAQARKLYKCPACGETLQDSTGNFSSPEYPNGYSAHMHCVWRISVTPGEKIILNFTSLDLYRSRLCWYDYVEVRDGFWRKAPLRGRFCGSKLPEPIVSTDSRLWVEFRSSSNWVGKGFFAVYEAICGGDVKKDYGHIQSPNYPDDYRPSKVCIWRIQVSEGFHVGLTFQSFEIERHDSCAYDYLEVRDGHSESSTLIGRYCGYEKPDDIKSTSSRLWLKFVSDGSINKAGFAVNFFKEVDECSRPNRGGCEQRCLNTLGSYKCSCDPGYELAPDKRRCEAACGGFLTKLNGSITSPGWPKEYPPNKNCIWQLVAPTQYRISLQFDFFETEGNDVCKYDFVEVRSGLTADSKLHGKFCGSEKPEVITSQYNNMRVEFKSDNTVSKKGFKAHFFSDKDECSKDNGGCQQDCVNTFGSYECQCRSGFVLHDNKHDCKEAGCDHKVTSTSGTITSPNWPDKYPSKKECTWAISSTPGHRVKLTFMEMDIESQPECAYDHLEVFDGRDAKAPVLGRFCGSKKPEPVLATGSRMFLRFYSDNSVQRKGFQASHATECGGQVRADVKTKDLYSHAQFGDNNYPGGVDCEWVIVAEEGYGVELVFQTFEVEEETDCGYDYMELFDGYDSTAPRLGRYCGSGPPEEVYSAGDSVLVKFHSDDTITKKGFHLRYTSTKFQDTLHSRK
Nature of the experiment: C-Proteinase IC50 assay, fluorogenic peptide. The class given is biochemical. The note with it: 50 μM fluorogenic peptide, pH 7.6, 4 hours at 37° C., fluorescence, read-out: C-Proteinase Inhibitor IC50. As for the experimental part:
The following assay may be used to determine the level of activity and effect of the different compounds of the present invention on C-proteinase activity. […] The reaction proceeded for 4 hours at 37° C. and the fluorescence was measured using a Bio-Tek Fl-600.

As usually defined, the IC50 is the concentration needed to halve the response being measured. On to `O=C(CCCC1C(=O)N(C23CC4CC(CC(C4)C2)C3)C(=O)N1Cc1cccc(O)c1)NO` (stereo not drawn) [Compound 161], for which the IC50 was determined as 140 nM. The same measure for `O=C(CCCC1C(=O)N(C23CC4CC(CC(C4)C2)C3)C(=O)N1Cc1cc(O)ccc1O)NO` (stereo not drawn) [Compound 137]: 59 nM; for `O=C(CCCC1C(=O)N(C23CC4CC(CC(C4)C2)C3)C(=O)N1CC1CC2C=CC1C2)NO` (stereo not drawn) [Compound 128]: 400 nM. The figure for `O=C(CCCC1C(=O)N(C2CCCCC2)C(=O)N1Cc1ccccc1O)NO` (stereo not drawn) [Compound 195] is 1080 nM; for `O=C(CCCC1C(=O)N(C2CCCCC2)C(=O)N1Cc1cccc(O)c1)NO` (stereo not drawn) [Compound 198] it is 1240 nM; for `COc1ccc(O)c(CN2C(=O)N(C34CC5CC(CC(C5)C3)C4)C(=O)C2CCCC(=O)NO)c1` (stereo not drawn) [Compound 139] it is 260 nM. The figure for `O=C(CCCC1C(=O)N(C23CC4CC(CC(C4)C2)C3)C(=O)N1Cc1ccco1)NO` (stereo not drawn) [Compound 176] is 230 nM; for `O=C(CCCC1C(=O)N(C23CC4CC(CC(C4)C2)C3)C(=O)N1Cc1ccccc1O)NO` (stereo not drawn) [Compound 155] it is 270 nM. In the case of `O=C(CCCC1C(=O)N(C23CC4CC(CC(C4)C2)C3)C(=O)N1Cc1ccccn1)NO` (stereo not drawn) [Compound 174], the concentration for half-maximal inhibition (IC50) was 210 nM. The figure for `O=C(CCCC1C(=O)N(C23CC4CC(CC(C4)C2)C3)C(=O)N1Cc1cccc2c1OCO2)NO` (stereo not drawn) [Compound 179] is 230 nM; for `COc1cccc(CN2C(=O)N(C34CC5CC(CC(C5)C3)C4)C(=O)C2CCCC(=O)NO)c1O` (stereo not drawn) [Compound 168] it is 430 nM. The figure for `O=C(CCCC1C(=O)N(C23CC4CC(CC(C4)C2)C3)C(=O)N1CC1CC1)NO` (stereo not drawn) [Compound 131] is 430 nM; for `O=C(CCCC1C(=O)N(C23CC4CC(CC(C4)C2)C3)C(=O)N1CC1=COCCC1)NO` (stereo not drawn) [Compound 192] it is 210 nM; for `O=C(CSCC1C(=O)N(C23CC4CC(CC(C4)C2)C3)C(=O)N1Cc1ccccn1)NO` (stereo not drawn) [Compound 199] it is 290 nM. The figure for `O=C(CCCC1C(=O)N(C23CC4CC(CC(C4)C2)C3)C(=O)N1CC1CCCCC1)NO` (stereo not drawn) [Compound 127] is 290 nM. In the case of `COc1ccccc1CN1C(=O)N(C23CC4CC(CC(C4)C2)C3)C(=O)C1CCCC(=O)NO` (stereo not drawn) [Compound 163], the IC50 was 600 nM. The same measure for `O=C(CCCC1C(=O)N(C23CC4CC(CC(C4)C2)C3)C(=O)N1Cc1ccccc1)NO` (stereo not drawn) [Compound 102]: 770 nM; for `O=C(CCCC1C(=O)N(C2CCCCC2)C(=O)N1Cc1ccccc1)NO` (stereo not drawn) [Compound 107]: 3330 nM.
